From PubChem BioAssay (NCI)
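Dose response: 5 concentrations. Exposure: 48 h. Format: 96-well plates. Endpoint: linear interpolation; highest concentration if not reached. TGI is the concentration that stops growth completely.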

What was measured:
Test in all cases: DTP human tumour cell line panel, 48 h
SF-268 CNS = test system: SF-268 CNS
KM12 colon = test system: KM12 colon
DMS 273 small cell lung = test system: DMS 273 small cell lung
OVCAR-4 ovarian = test system: OVCAR-4 ovarian
SK-MEL-2 melanoma = test system: SK-MEL-2 melanoma
ACHN renal = test system: ACHN renal
LXFL 529 NSCLC = test system: LXFL 529 NSCLC
CAKI-1 renal = test system: CAKI-1 renal
COLO 205 colon = test system: COLO 205 colon
HT29 colon = test system: HT29 colon
SK-OV-3 ovarian = test system: SK-OV-3 ovarian
MOLT-4 leukemia = test system: MOLT-4 leukemia
M14 melanoma = test system: M14 melanoma
OVCAR-8 ovarian = test system: OVCAR-8 ovarian
HL-60(TB) leukemia = test system: HL-60(TB) leukemia
SF-295 CNS = test system: SF-295 CNS
LOX IMVI melanoma = test system: LOX IMVI melanoma
U251 CNS = test system: U251 CNS
SK-MEL-28 melanoma = test system: SK-MEL-28 melanoma
HOP-62 NSCLC = test system: HOP-62 NSCLC
EKVX NSCLC = test system: EKVX NSCLC
KM20L2 colon = test system: KM20L2 colon
UO-31 renal = test system: UO-31 renal
A498 renal = test system: A498 renal
SF-539 CNS = test system: SF-539 CNS
A549 NSCLC = test system: A549 NSCLC
NCI-H522 lung = test system: NCI-H522 lung
SNB-75 CNS = test system: SNB-75 CNS
HOP-92 NSCLC = test system: HOP-92 NSCLC
NCI-H460 lung = test system: NCI-H460 lung
HCT-15 colon = test system: HCT-15 colon
RXF 393 renal = test system: RXF 393 renal
NCI-H23 lung = test system: NCI-H23 lung
HCT-116 colon = test system: HCT-116 colon
SW-620 colon = test system: SW-620 colon
SK-MEL-5 melanoma = test system: SK-MEL-5 melanoma
SNB-19 CNS = test system: SNB-19 CNS
DLD-1 colon = test system: DLD-1 colon
CCRF-CEM leukemia = test system: CCRF-CEM leukemia
XF 498 CNS = test system: XF 498 CNS
HCC-2998 colon = test system: HCC-2998 colon
SN12C renal = test system: SN12C renal
DMS 114 small cell lung = test system: DMS 114 small cell lung
OVCAR-5 ovarian = test system: OVCAR-5 ovarian
K-562 leukemia = test system: K-562 leukemia
RPMI-8226 leukemia = test system: RPMI-8226 leukemia
SNB-78 CNS = test system: SNB-78 CNS
M19-MEL melanoma = test system: M19-MEL melanoma
SR leukemia = test system: SR leukemia
UACC-62 melanoma = test system: UACC-62 melanoma
TK-10 renal = test system: TK-10 renal
UACC-257 melanoma = test system: UACC-257 melanoma
NCI-H226 lung = test system: NCI-H226 lung
IGROV1 ovarian = test system: IGROV1 ovarian
HOP-18 NSCLC = test system: HOP-18 NSCLC
OVCAR-3 ovarian = test system: OVCAR-3 ovarian
MALME-3M melanoma = test system: MALME-3M melanoma

CN/N=C(\C(=O)Nc1ccc(C)c(C)c1)C(C(=O)OC)c1nc2ccc([N+](=O)[O-])cc2[nH]c1=O (stereo not given)
TGI (SF-268 CNS): > 100 µM | TGI (KM12 colon): > 100 µM | TGI (DMS 273 small cell lung): > 100 µM | TGI (OVCAR-4 ovarian): > 100 µM | TGI (SK-MEL-2 melanoma): > 100 µM | TGI (ACHN renal): > 100 µM | TGI (LXFL 529 NSCLC): > 100 µM | TGI (CAKI-1 renal): > 100 µM | TGI (COLO 205 colon): > 100 µM | TGI (HT29 colon): > 100 µM | TGI (SK-OV-3 ovarian): > 100 µM | TGI (MOLT-4 leukemia): > 100 µM | TGI (M14 melanoma): > 100 µM | TGI (OVCAR-8 ovarian): > 100 µM | TGI (HL-60(TB) leukemia): > 100 µM | TGI (SF-295 CNS): > 100 µM | TGI (LOX IMVI melanoma): > 100 µM | TGI (U251 CNS): > 100 µM | TGI (SK-MEL-28 melanoma): > 100 µM | TGI (HOP-62 NSCLC): > 100 µM | TGI (EKVX NSCLC): > 100 µM | TGI (KM20L2 colon): > 100 µM | TGI (UO-31 renal): > 100 µM | TGI (A498 renal): > 100 µM | TGI (SF-539 CNS): > 100 µM | TGI (A549 NSCLC): > 100 µM | TGI (NCI-H522 lung): 70.9 µM | TGI (SNB-75 CNS): > 100 µM | TGI (HOP-92 NSCLC): > 100 µM | TGI (NCI-H460 lung): > 100 µM | TGI (HCT-15 colon): > 100 µM | TGI (RXF 393 renal): > 100 µM | TGI (NCI-H23 lung): > 100 µM | TGI (HCT-116 colon): > 100 µM | TGI (SW-620 colon): > 100 µM | TGI (SK-MEL-5 melanoma): > 100 µM | TGI (SNB-19 CNS): > 100 µM | TGI (DLD-1 colon): > 100 µM | TGI (CCRF-CEM leukemia): > 100 µM | TGI (XF 498 CNS): > 100 µM | TGI (HCC-2998 colon): > 100 µM | TGI (SN12C renal): > 100 µM | TGI (DMS 114 small cell lung): > 100 µM | TGI (OVCAR-5 ovarian): > 100 µM | TGI (K-562 leukemia): > 100 µM | TGI (RPMI-8226 leukemia): > 100 µM | TGI (SNB-78 CNS): > 100 µM | TGI (M19-MEL melanoma): > 100 µM | TGI (SR leukemia): > 100 µM | TGI (UACC-62 melanoma): > 100 µM | TGI (TK-10 renal): > 100 µM | TGI (UACC-257 melanoma): > 100 µM | TGI (NCI-H226 lung): > 100 µM | TGI (IGROV1 ovarian): > 100 µM

CCOC(=O)C1=C(C)N(C2OC(COC(=O)c3ccccc3)C(OC(=O)c3ccccc3)C2OC(=O)c2ccccc2)C(=S)NC1c1ccccc1 (stereo not given)
TGI (SF-268 CNS): > 100 µM | TGI (KM12 colon): > 100 µM | TGI (OVCAR-4 ovarian): > 100 µM | TGI (SK-MEL-2 melanoma): > 100 µM | TGI (ACHN renal): > 100 µM | TGI (LXFL 529 NSCLC): > 100 µM | TGI (CAKI-1 renal): 79.4 µM | TGI (COLO 205 colon): > 100 µM | TGI (HOP-18 NSCLC): > 100 µM | TGI (HT29 colon): > 100 µM | TGI (OVCAR-3 ovarian): 71.9 µM | TGI (SK-OV-3 ovarian): > 100 µM | TGI (MOLT-4 leukemia): 80.6 µM | TGI (M14 melanoma): 93.2 µM | TGI (OVCAR-8 ovarian): > 100 µM | TGI (HL-60(TB) leukemia): 33.9 µM | TGI (SF-295 CNS): > 100 µM | TGI (LOX IMVI melanoma): > 100 µM | TGI (U251 CNS): > 100 µM | TGI (SK-MEL-28 melanoma): > 100 µM | TGI (HOP-62 NSCLC): > 100 µM | TGI (MALME-3M melanoma): 78.8 µM | TGI (EKVX NSCLC): 62.2 µM | TGI (KM20L2 colon): > 100 µM | TGI (UO-31 renal): 99.4 µM | TGI (A498 renal): > 100 µM | TGI (SF-539 CNS): > 100 µM | TGI (A549 NSCLC): > 100 µM | TGI (NCI-H522 lung): 66.1 µM | TGI (SNB-75 CNS): > 100 µM | TGI (NCI-H460 lung): > 100 µM | TGI (NCI-H23 lung): > 100 µM | TGI (HCT-116 colon): > 100 µM | TGI (SW-620 colon): > 100 µM | TGI (SK-MEL-5 melanoma): 42.8 µM | TGI (SNB-19 CNS): > 100 µM | TGI (DLD-1 colon): > 100 µM | TGI (CCRF-CEM leukemia): > 100 µM | TGI (HCC-2998 colon): > 100 µM | TGI (SN12C renal): > 100 µM | TGI (DMS 114 small cell lung): 97.2 µM | TGI (OVCAR-5 ovarian): > 100 µM | TGI (K-562 leukemia): 91.7 µM | TGI (RPMI-8226 leukemia): 45.2 µM | TGI (SNB-78 CNS): > 100 µM | TGI (M19-MEL melanoma): > 100 µM | TGI (SR leukemia): 73.2 µM | TGI (UACC-62 melanoma): > 100 µM | TGI (UACC-257 melanoma): > 100 µM | TGI (NCI-H226 lung): > 100 µM | TGI (IGROV1 ovarian): > 100 µM
